{
  "source": "paper PMC7080406",
  "about": "(eLife, 2020)",
  "key": {"[1]": {"target": "T1, MT1 Y281F mutant receptor (Homo sapiens, UniProt P48039, Y281F)", "T1 construct": "expressed in transfected cells; host or cells: HTLA cells (HEKT based)", "T1 sequence (P48039 whole entry Y281F)": "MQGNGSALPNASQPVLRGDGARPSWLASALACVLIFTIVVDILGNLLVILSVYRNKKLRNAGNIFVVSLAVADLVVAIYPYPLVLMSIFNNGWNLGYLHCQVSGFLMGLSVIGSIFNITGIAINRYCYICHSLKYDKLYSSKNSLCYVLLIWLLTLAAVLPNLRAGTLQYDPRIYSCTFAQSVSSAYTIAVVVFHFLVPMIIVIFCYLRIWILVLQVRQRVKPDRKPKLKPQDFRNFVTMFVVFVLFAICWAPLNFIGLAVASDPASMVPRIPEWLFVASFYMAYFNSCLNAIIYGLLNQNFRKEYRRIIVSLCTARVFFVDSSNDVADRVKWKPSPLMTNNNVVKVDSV", "experiment": "Tango β-arrestin recruitment assay, MT1 Y281F mutant", "assay_type": "cell-based", "protocol": "(§1) In brief, HTLA cells were transiently transfected with receptor TANGO DNA constructs overnight in DMEM with 10% FBS. Transfected cells were then plated into poly-L-Lys coated 384-well plates using DMEM supplemented with 1% dialyzed FBS. After 6 hr incubation, drug dilutions, prepared in DMEM with 1% dFBS, were added for incubation overnight (16–20 hr). Medium and drug solutions were removed, Bright-Glo reagent (20 uL/well) was added for luminescence counting 20 min later. Results were analyzed in GraphPad Prism 7.0."}, "[2]": {"target": "T2, 5-HT1D (Homo sapiens, UniProt P28221)", "T2 construct": "expressed in transfected cells; host or cells: HEK293T, transient transfection (NIMH PDSP)", "experiment": "Off-target radioligand binding, 5-HT1D", "protocol": "The Radioligand binding assays were conducted by the NIMH Psychoactive Drug Screening Program (PDSP). The NIMH PDSP is directed by Bryan L. Roth, MD, PhD, at the University of North Carolina at Chapel Hill, North Carolina, and Program Officer Jamie Driscoll at NIMH, Bethesda, MD. Binding assay procedures and protocols are also available online at http://pdspdb.unc.edu/pdspWeb/?site=assays. […] Assay plates were sealed and incubated for 4 hr at 37°C in a humidified incubator until harvesting. Plates were harvested using vacuum filtration onto 0.3% polyethyleneimine pre-soaked 96-well Filtermat A (PerkinElmer) and washed three times with cold wash buffer (50 mM Tris, pH 7.4). Filters were dried and melted with a scintillation cocktail (Meltilex, PerkinElmer). Radioactivity was counted using a Wallac TriLux Microbeta counter (PerkinElmer). Results were analyzed using GraphPad Prism 7.0."}, "[3]": {"target": "T3, MT2 (Homo sapiens, UniProt P49286)", "T3 sequence (P49286 1-362)": "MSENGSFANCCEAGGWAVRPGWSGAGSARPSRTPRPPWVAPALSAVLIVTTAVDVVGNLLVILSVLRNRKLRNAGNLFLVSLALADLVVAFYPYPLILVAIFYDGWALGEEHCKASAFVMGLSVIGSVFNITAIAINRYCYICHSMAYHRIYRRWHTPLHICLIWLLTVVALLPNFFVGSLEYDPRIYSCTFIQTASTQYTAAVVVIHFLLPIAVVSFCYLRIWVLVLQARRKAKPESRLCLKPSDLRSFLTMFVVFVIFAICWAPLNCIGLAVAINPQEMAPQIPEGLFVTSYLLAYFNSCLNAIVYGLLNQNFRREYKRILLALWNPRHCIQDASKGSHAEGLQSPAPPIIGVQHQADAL", "experiment": "GloSensor Gi/o-mediated cAMP production inhibition assay, MT2", "assay_type": "cell-based", "design": "expressed in transfected cells; host or cells: HEK293T (ATCC CRL-11268), transient transfection", "settings": "for EC50: Gi/o mediated", "protocol": "Briefly, HEK293 T cells (as above) were transiently co-transfected with receptor (MT1 or MT2) and GloSensor cAMP (Promega) plasmids overnight, plated in Poly-L-Lysine coated 384-well white clear bottom plates in DMEM + 1% dialyzed FBS. Cells were used for assays at a minimum of 6 hr after plating. Culture medium was first removed and cells were stimulated with drugs in assay buffer (1x HBSS, 20 mM HEPES, 1 mg/ml BSA, 0.1 mg/ml ascorbic acid, pH 7.4) for 15 min at room temperature (this and all the following steps), followed by addition of a mixture of isoproterenol (final of 100 nM) and luciferin (final of 1 mM) for Gi/o-cAMP production inhibition assays and luciferin (final of 1 mM) for Gs-cAMP production assays. The plates were counted for luminescence after 25 min in a luminescence plate reader. Results were analyzed using GraphPad Prism 7.0."}, "[4]": {"target": "T4, MT1 N162Q mutant receptor (Homo sapiens, UniProt P48039, N162Q)", "T4 construct": "expressed in transfected cells; host or cells: HTLA cells (HEKT based)", "T4 sequence (P48039 whole entry N162Q)": "as the sequence (P48039 whole entry Y281F) above, with N162Q, F281Y counted along it", "experiment": "Tango β-arrestin recruitment assay, MT1 N162Q mutant", "assay_type": "cell-based", "settings": "normalized individually (basal 0%, maximum 100%); mean ± SEM, minimum of 3 assays; read-out: pEC50, Tango, MT1 N162Q (converted)", "protocol": "as §1"}, "[5]": {"target": "T3, MT2", "experiment": "Tango β-arrestin recruitment assay, MT2", "assay_type": "cell-based", "design": "expressed in transfected cells; transient transfection", "settings": "result in words; compared to G-protein", "protocol": "as §1, with “Tango arrestin recruitment assays were carried out according to the previously published procedure [Kroeze et al. (2015)]. In” for “In”"}},
  "note": "“Also recorded” adds a separate entry of the source. Where two headings read alike, the source gives them in different places.",
  "data": [
    {"smiles": "COc1ccc2[nH]cc(CCNC(N)=O)c2c1", "note": "[Compound 28, [2-(5-methoxy-1H-indol-3-yl)ethyl]urea]", "values": [
      {"measurement": "reduction of potency, MT1 Y281F versus WT", "setting": "[1]; Tango", "result": "> 100", "unit": "fold"},
      {"measurement": "EC50", "setting": "[1]; normalized individually (basal 0%, maximum 100%), mean ± SEM, minimum of 3 assays, read-out: pEC50, Tango, MT1 Y281F (converted)", "result": 4680, "unit": "nM"},
      {"measurement": "inhibition at 10 µM", "setting": "[2]; 10 μM", "result": "> 50", "unit": "%"},
      {"measurement": "Ki", "setting": "[2]; read-out: pKi, 5-HT1D (converted)", "result": 1510, "unit": "nM"},
      {"measurement": "MT2/MT1 Selectivity", "setting": "[3]; Antilog (log(Emax/EC50) MT2 - log (Emax/EC50) MT1), values below 1 = MT1 selectivity", "result": 0.7, "unit": "fold"},
      {"measurement": "EC50", "setting": "[3]; SEM, N = 3, read-out: MT2 pEC50 ± SEM (converted)", "result": 0.0447, "unit": "nM"},
      {"measurement": "EC50", "setting": "[3]; read-out: MT2 EC50", "result": 0.04, "unit": "nM"},
      {"measurement": "Emax", "setting": "[3]; MT2, activation compared to melatonin, read-out: MT2 Emax ± SEM", "result": "< 70", "unit": "%"},
      {"measurement": "MT2 LE", "setting": "[3]; ligand efficiency (based on EC50)", "result": "0.85 kcal/mol per non-hydrogen atom"},
      {"measurement": "EC50", "setting": "[4]", "result": 468, "unit": "nM"},
      {"measurement": "β-arrestin signaling / arrestin recruitment at MT2", "setting": "[5]", "result": "dramatically reduced arrestin recruitment; also recorded: marked reduction in β-arrestin signaling compared to G-protein"}
    ]}
  ]
}
